In US20110118298A1, “COMPOSITIONS, KITS, AND METHODS FOR IDENTIFICATION, ASSESSMENT, PREVENTION, AND THERAPY OF CANCER” (INFINITY PHARMACEUTICALS, INC., priority 2009, published 2011):
“Also recorded” adds a separate entry of the source. Counter-ions that a name gives are not always drawn.

How the values were obtained:
EML4-ALK = test: Time to client protein degradation by immunoblot, H3122 cells; assay type: cell-based, human; conditions: 1 uM IPI-504
Method: FIG. 7B is panel of immunoblot images showing the levels of ALK, phospho-ALK and cleaved-PARP in H3122 cells, HER2 in BT474 cells, and EGFR in H1650 cells at various time points after IPI-504 (1 uM) treatment. Proteins levels were monitored by immunoblotting.
Rearrangements at the ALK locus have been reported in about 5% of NSCLC patients, forming an oncogenic fusion of the N-terminus of EML4 with the C-terminal kinase domain of ALK (Soda, M. et al. (2007) Nature 448: 561-6). To determine whether the EML4-ALK fusion protein is a client protein of Hsp90, we incubated the EML4-ALK-expressing NSCLC cell line H3122 with increasing concentrations of IPI-504 and measured the abundance of total and phosphorylated ALK protein by ELISA (FIG. 7a). In this experiment, virtually all ALK protein is degraded at concentrations above 50 nM IPI-504. The degradation IC50 measured (4 nM) makes this the most sensitive Hsp90 client protein we have encountered. […] To further confirm that EML4-ALK is indeed a client of Hsp90, we performed immunoprecipitations with an antibody directed against Hsp90a, and detected a protein band at the predicted molecular weight ([…]) with an ALK antibody in Hsp90 immunoprecipitates from H3122 cells but not control cells (FIG. 7c, lane 1 and 3). […]

AKT/mTOR pathway = test: Immunoblot of BON-1 cells, IPI-504, rapamycin or both; assay type: cell-based; conditions: BON-1, 6 or 24 hours, 1 μM IPI-504, 100 nM rapamycin or both
Method: BON-1 cells were incubated for either 6 hours or 24 hours with 1 uM of IPI-504, 100 nM rapamycin (Sigma) or the combination of both. 50 ug of cell lysate was immunoblotted for pAKT, total AKT, pS6, total S6, pERK 1/2 (Cell Signaling), IGF-1Rb, Hsp70, and b-actin (Santa Cruz). Image analysis and band quantization were performed with the Bio-Rad Versa Doc system. The expression of GADPH was used as a control for protein loading.
Since the PI3K/Akt/mTOR pathway is activated in neuroendocrine tumors, GEP-NET cells were treated with IPI-504 and drugs which inhibit the AKT/mTOR pathway to look for combination effects. In one experiment, BON-1 cells were incubated for 6 or 24 hours with 1 μM IPI-504, 100 nM rapamycin or the combination of both. Fifty μg of cell lysate was immunoblotted for pAKT, total AKT, pS6, IGF-1Rβ, Hsp70, and β-actin.

carcinoid cell lines = test: Carcinoid cell line panel, growth inhibition; assay type: cell-based; conditions: units given in the value; read-out: GI50 values, all carcinoid cell lines tested
Method: Cell lines BON-1 (a metastatic cell originating from the pancreas), H-720 (a carcinoid cell originating from the lung), QGP-1 (originating from a carcinoma of pancreatic islet cells) and HC45 (a carcinoid cell originating from the ileum) were grown in RPMI-1640 medium supplemented with 10% fetal bovine serum, 1 μg/ml streptomycin and 1 μg/ml penicillin. All cell lines were tested for mycoplasma and maintained at 37° C. in 5% CO2 atmosphere.
Cells were seeded at 10,000 cells/well in 96 well plates for 24 hours and subsequently incubated with increasing concentrations of IPI-504 for 72 hrs, and viability studies were performed using the vital mitochondrial function stain Cell Titer Glow kit (Promega, Madison, Wis.). The data were normalized with respect to DMSO vehicle control to generate growth inhibition GI50 values.
In addition, GI50 values (i.e., the concentration of compound needed to reduce the growth of treated cells to half that of untreated cells) for 17-AG, IPI-504, SNX-2112 and NVP-AUY922 are provided in Table 6. All carcinoid cell lines tested were sensitive to IPI-504 with GI50 values between 10 nM and 1 μM Table 6).

[1] = tested on: Colo320HSR, NCI-H716, SNU-C1, C2BBe1 xenografts; test: Colorectal xenografts wild type for both KRAS and BRAF; assay type: in vivo, Nu/Nu mice; conditions: 100 mg/kg three times weekly, oral
Method: Preparation of a suspension of this solid amorphous dispersion was made by levigating the solid with glycerol with a spatula followed by homogenization in a 1% hydroxyethylcellulose solution in a high speed homogenizer for 10 minutes to provide in vehicle (1% hydroxyethylcellulose, 5% glycerol). The suspension was used to administer 17-AG in the below described in vivo experiments.
In the third set of studies, the Colo320HSR (FIG. 22A), NC1—H716 (FIG. 22B), SNU-C1 (FIG. 22C) and C2BBe1 (FIG. 22D) cell lines were employed all of which are wild type for both KRAS and BRAF. 5-6 week old Nu/Nu mice were implanted subcutaneously with 10×10^6 cells for each cell line used and dosing by oral gavage commenced after tumors had reached approximately 150-200 mm^3 on a dosing schedule of three times weekly (M, W, F) with a suspension of 50% 17-AG in HPMC-AS-HG dispersion in vehicle (1% hydroxyethylcellulose, 5% glycerol) at a dose level of 100 mg/kg 17-AG (IPI-493) as compared to vehicle control.

Compound	time to complete degradation of EML4-ALK (EML4-ALK) [h]	effect on AKT and signalling downstream of mTOR (AKT/mTOR pathway)	GI50 (carcinoid cell lines) [nM]	effect on tumor growth in wild-type kRAS/bRAF models [1]	effect on tumor growth in wild-type kRAS/bRAF models ([1]; listed as 17-AG)
C=CCNc1c(O)cc2c(O)c1C[C@@H](C)C[C@H](OC)[C@H](O)[C@@H](C)/C=C(\C)[C@H](OC(N)=O)[C@@H](OC)/C=C\C=C(/C)C(=O)N2 [IPI-504, retaspimycin hydrochloride]	≤ 3	AKT degradation	10 to 1000		
CO[C@H]1/C=C\C=C(/C)C(=O)NC2=CC(=O)C(N)=C(C[C@@H](C)C[C@H](OC)[C@H](O)[C@@H](C)/C=C(\C)[C@@H]1OC(N)=O)C2=O [IPI-493, 17-AG]				no detactable effect on TGI; also recorded: did not lead to tumor growth inhibition	no detectable difference in tumor volume
